Experimental data taken from patent US9637496B2, “Substituted 7-azabicycles and their use as orexin receptor modulators” (priority 2013, dated 2017).
pKi: −log10 of the molar value. Read-outs that look alike come from different tables or passages of the source.

Experiments:
human orexin 1 receptor = human orexin 1 receptor (Homo sapiens (Human), UniProt O43613); test: Human orexin 1 receptor radioligand binding (competitive binding, CHO membranes)
human orexin 2 receptor = human orexin 2 receptor (Homo sapiens (Human), UniProt O43614); test: Human orexin 2 receptor radioligand binding ([3H]-EMPA competition, HEK293 membranes)
rat orexin 1 receptor = rat orexin 1 receptor (Rattus norvegicus (Rat), UniProt P56718); test: Rat orexin 1 receptor radioligand binding (competitive binding, HEK293 membranes)
[1] = human orexin 1 receptor, Table 2, averages from between 2-20 runs, read-out: hOX1 Ki
[2] = human orexin 2 receptor, Table 2, averages from between 2-20 runs, read-out: hOX2 Ki
[3] = rat orexin 1 receptor, Table 2, averages from between 2-20 runs, read-out: rOX1 Ki

Chain of human orexin 1 receptor (O43613 whole entry): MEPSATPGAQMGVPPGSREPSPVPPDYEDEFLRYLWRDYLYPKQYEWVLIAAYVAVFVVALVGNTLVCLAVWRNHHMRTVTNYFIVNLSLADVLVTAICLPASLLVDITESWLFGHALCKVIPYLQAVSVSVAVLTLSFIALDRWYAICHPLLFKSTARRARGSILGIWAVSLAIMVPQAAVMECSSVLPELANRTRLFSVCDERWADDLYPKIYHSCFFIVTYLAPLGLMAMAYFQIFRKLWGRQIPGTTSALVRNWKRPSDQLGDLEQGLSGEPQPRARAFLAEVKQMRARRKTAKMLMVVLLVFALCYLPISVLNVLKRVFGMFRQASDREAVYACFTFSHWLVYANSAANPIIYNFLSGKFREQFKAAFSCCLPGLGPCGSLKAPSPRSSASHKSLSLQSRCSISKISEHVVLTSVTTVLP
Chain of human orexin 2 receptor (O43614 whole entry): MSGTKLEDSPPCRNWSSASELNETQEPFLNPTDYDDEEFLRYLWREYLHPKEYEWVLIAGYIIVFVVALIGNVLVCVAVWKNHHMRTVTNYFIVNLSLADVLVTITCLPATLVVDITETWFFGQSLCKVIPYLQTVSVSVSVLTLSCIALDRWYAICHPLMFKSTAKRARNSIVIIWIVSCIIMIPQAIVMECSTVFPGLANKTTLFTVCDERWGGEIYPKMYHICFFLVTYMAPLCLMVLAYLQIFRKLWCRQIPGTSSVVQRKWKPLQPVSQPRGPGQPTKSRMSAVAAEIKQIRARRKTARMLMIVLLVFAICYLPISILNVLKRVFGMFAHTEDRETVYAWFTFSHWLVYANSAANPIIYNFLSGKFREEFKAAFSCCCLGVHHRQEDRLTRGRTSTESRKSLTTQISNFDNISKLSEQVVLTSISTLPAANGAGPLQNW
Chain of rat orexin 1 receptor (P56718 whole entry): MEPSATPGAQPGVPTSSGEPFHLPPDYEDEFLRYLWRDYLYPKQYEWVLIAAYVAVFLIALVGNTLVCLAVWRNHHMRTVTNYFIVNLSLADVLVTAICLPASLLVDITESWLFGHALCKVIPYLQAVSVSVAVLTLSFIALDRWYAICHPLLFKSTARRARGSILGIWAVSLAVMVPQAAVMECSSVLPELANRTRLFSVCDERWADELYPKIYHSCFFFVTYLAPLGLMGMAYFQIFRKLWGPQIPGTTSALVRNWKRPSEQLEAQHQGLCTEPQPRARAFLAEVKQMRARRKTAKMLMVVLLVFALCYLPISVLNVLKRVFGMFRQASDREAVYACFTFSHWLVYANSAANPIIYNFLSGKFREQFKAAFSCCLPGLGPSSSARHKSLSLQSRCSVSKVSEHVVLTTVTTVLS

| SMILES | pKi (human orexin 1 receptor; [1]) | pKi (human orexin 2 receptor; [2]) | pKi (rat orexin 1 receptor; [3]) | pKi (human orexin 1 receptor; read-out: hOX1 Ki) | pKi (rat orexin 1 receptor; read-out: rOX1 Ki) | further results |
| --- | --- | --- | --- | --- | --- | --- |
| CN(c1ccc(C(F)(F)F)cn1)[C@@H]1C[C@H]2CC[C@@H]1N2C(=O)c1cccc(F)c1-c1ncccn1 [Example 377, (3-fluoro-2-(pyrimidin-2-yl)phenyl)((1S,2R,4R)-2-(methyl(5-(trifluoromethyl)pyridin-2-yl)amino)-7-azabicyclo[2.2.1]heptan-7-yl)methanone] | 6.85 | 5.05 | 6.65 | – | – | – |
| Cc1cnc(C(=O)N2[C@@H]3CC[C@H]2[C@H](Nc2ccc(C(F)(F)F)cn2)C3)c(-c2ncccn2)c1 [Example 380, (5-methyl-3-(pyrimidin-2-yl)pyridin-2-yl)((1S,2R,4R)-2-((5-(trifluoromethyl)pyridin-2-yl)amino)-7-azabicyclo[2.2.1]heptan-7-yl)methanone] | – | 5.07 | – | 7.32 | 7.55 | – |
| O=C(c1ncccc1-c1ncccn1)N1[C@@H]2CC[C@H]1[C@H](Nc1ccc(C(F)(F)F)cn1)C2 [Example 381, (3-(pyrimidin-2-yl)pyridin-2-yl)((1S,2R,4R)-2-((5-(trifluoromethyl)pyridin-2-yl)amino)-7-azabicyclo[2.2.1]heptan-7-yl)methanone] | – | 6.10 | – | 7.60 | 7.60 | – |
| O=C(c1cccc(F)c1-c1ncccn1)N1[C@@H]2CC[C@H]1[C@H](Nc1ncc(C(F)(F)F)cc1F)C2 [Example 382, (3-fluoro-2-(pyrimidin-2-yl)phenyl)((1S,2R,4R)-2-((3-fluoro-5-(trifluoromethyl)pyridin-2-yl)amino)-7-azabicyclo[2.2.1]heptan-7-yl)methanone] | 7.82 | 5.96 | 7.74 | – | – | – |
| O=C(c1cccc(F)c1-n1nccn1)N1[C@@H]2CC[C@H]1[C@H](Nc1ncc(C(F)(F)F)cc1Cl)C2 [Example 383, ((1S,2R,4R)-2-((3-chloro-5-(trifluoromethyl)pyridin-2-yl)amino)-7-azabicyclo[2.2.1]heptan-7-yl)(3-fluoro-2-(2H-1,2,3-triazol-2-yl)phenyl)methanone] | 7.80 | 6.12 | 7.48 | – | – | – |
| O=C(c1cccc(F)c1-c1ncccn1)N1[C@@H]2CC[C@H]1[C@H](Nc1ncc(C(F)(F)F)cc1Cl)C2 [Example 384, ((1S,2R,4R)-2-((3-chloro-5-(trifluoromethyl)pyridin-2-yl)amino)-7-azabicyclo[2.2.1]heptan-7-yl)(3-fluoro-2-(pyrimidin-2-yl)phenyl)methanone] | 7.92 | 6.21 | 7.82 | – | – | – |
| O=C(c1ccccc1-c1ncc(F)cn1)N1[C@@H]2CC[C@H]1[C@H](Nc1ncc(C(F)(F)F)cc1Cl)C2 [Example 385, ((1S,2R,4R)-2-((3-chloro-5-(trifluoromethyl)pyridin-2-yl)amino)-7-azabicyclo[2.2.1]heptan-7-yl)(2-(5-fluoropyrimidin-2-yl)phenyl)methanone] | – | 6.16 | – | 7.36 | 7.43 | – |
| O=C(c1ccccc1-c1ncccn1)N1[C@@H]2CC[C@H]1[C@H](Nc1ncc(C(F)(F)F)cc1Cl)C2 [Example 386, ((1S,2R,4R)-2-((3-chloro-5-(trifluoromethyl)pyridin-2-yl)amino)-7-azabicyclo[2.2.1]heptan-7-yl)(2-(pyrimidin-2-yl)phenyl)methanone] | 7.54 | 6.30 | 7.70 | – | – | – |
| O=C(c1ncccc1-c1ncccn1)N1[C@@H]2CC[C@H]1[C@H](Nc1ncc(C(F)(F)F)cc1Cl)C2 [Example 387, ((1S,2R,4R)-2-((3-chloro-5-(trifluoromethyl)pyridin-2-yl)amino)-7-azabicyclo[2.2.1]heptan-7-yl)(3-(pyrimidin-2-yl)pyridin-2-yl)methanone] | 7.48 | 5.96 | 7.40 | – | – | – |
| O=C(c1cccc(F)c1-n1nccn1)N1[C@@H]2CC[C@H]1[C@H](Nc1ccc(C(F)F)cn1)C2 [Example 388, ((1S,2R,4R)-2-((5-(difluoromethyl)pyridin-2-yl)amino)-7-azabicyclo[2.2.1]heptan-7-yl)(3-fluoro-2-(2H-1,2,3-triazol-2-yl)phenyl)methanone] | 6.93 | 5.96 | 6.89 | – | – | – |
| O=C(c1cccc(F)c1-c1ncccn1)N1[C@@H]2CC[C@H]1[C@H](Nc1ccc(C(F)F)cn1)C2 [Example 389, ((1S,2R,4R)-2-((5-(difluoromethyl)pyridin-2-yl)amino)-7-azabicyclo[2.2.1]heptan-7-yl)(3-fluoro-2-(pyrimidin-2-yl)phenyl)methanone] | 6.77 | 6.13 | 6.91 | – | – | – |
| N#Cc1ccc(N[C@@H]2C[C@H]3CC[C@@H]2N3C(=O)c2cccc(F)c2-n2nccn2)nc1 [Example 390, 6-(((1S,2R,4R)-7-(3-fluoro-2-(2H-1,2,3-triazol-2-yl)benzoyl)-7-azabicyclo[2.2.1]heptan-2-yl)amino)nicotinonitrile] | 5.85 | < 5.00 | 5.82 | – | – | – |
| Cc1cccc(C(=O)N2[C@@H]3CC[C@H]2[C@H](Nc2ccc(C#N)cn2)C3)c1-n1nccn1 [Example 391, 6-(((1S,2R,4R)-7-(3-methyl-2-(2H-1,2,3-triazol-2-yl)benzoyl)-7-azabicyclo[2.2.1]heptan-2-yl)amino)nicotinonitrile] | 6.50 | 5.36 | 6.66 | – | – | – |
| N#Cc1ccc(N[C@@H]2C[C@H]3CC[C@@H]2N3C(=O)c2cccc(F)c2-c2ncccn2)nc1 [Example 392, 6-(((1S,2R,4R)-7-(3-fluoro-2-(pyrimidin-2-yl)benzoyl)-7-azabicyclo[2.2.1]heptan-2-yl)amino)nicotinonitrile] | 5.85 | < 5.00 | 6.00 | – | – | – |
| Cc1cccc(C(=O)N2[C@@H]3CC[C@H]2[C@H](Nc2ccc(C#N)cn2)C3)c1-c1ncccn1 [Example 393, 6-(((1S,2R,4R)-7-(3-methyl-2-(pyrimidin-2-yl)benzoyl)-7-azabicyclo[2.2.1]heptan-2-yl)amino)nicotinonitrile] | 6.49 | 5.08 | 6.30 | – | – | – |
| Cc1cccc(C(=O)N2[C@@H]3CC[C@H]2[C@H](Nc2ccc(C#N)cn2)C3)c1-c1ncco1 [Example 394, 6-(((1S,2R,4R)-7-(3-methyl-2-(oxazol-2-yl)benzoyl)-7-azabicyclo[2.2.1]heptan-2-yl)amino)nicotinonitrile] | 6.60 | 5.68 | 6.73 | – | – | – |
| [2H]C1(Nc2cnc(C(F)(F)F)cn2)CC2CCC1N2C(=O)c1cccc(F)c1-c1ncccn1 [Example 395, (3-fluoro-2-(pyrimidin-2-yl)phenyl)((1S,2R,4R)-(2-^2H)-((5-(trifluoromethyl)pyrazin-2-yl)amino)-7-azabicyclo[2.2.1]heptan-7-yl)methanone] | – | – | – | – | – | pKi (human orexin 1 receptor): 7.85; pKi (human orexin 2 receptor): 6.05; pKi (rat orexin 1 receptor): 7.77 |
| O=C(c1ccccc1-c1ncc(F)cn1)N1[C@@H]2CC[C@H]1[C@H](Nc1cnc(C(F)(F)F)cn1)C2 [Example 397, (2-(5-fluoropyrimidin-2-yl)phenyl)((1S,2R,4R)-2-((5-(trifluoromethyl)pyrazin-2-yl)amino)-7-azabicyclo[2.2.1]heptan-7-yl)methanone] | – | 6.01 | – | 7.62 | 7.30 | – |
| O=C(c1cccc(F)c1-c1ncc(F)cn1)N1[C@@H]2CC[C@H]1[C@H](Nc1cnc(C(F)(F)F)cn1)C2 [Example 398, (3-fluoro-2-(5-fluoropyrimidin-2-yl)phenyl)((1S,2R,4R)-2-((5-(trifluoromethyl)pyrazin-2-yl)amino)-7-azabicyclo[2.2.1]heptan-7-yl)methanone] | 7.09 | 5.68 | 7.21 | – | – | – |
| Cc1cccc(C(=O)N2[C@@H]3CC[C@H]2[C@H](Nc2cnc(C(F)(F)F)cn2)C3)c1-c1ncc(F)cn1 [Example 399, (2-(5-fluoropyrimidin-2-yl)-3-methylphenyl)((1S,2R,4R)-2-((5-(trifluoromethyl)pyrazin-2-yl)amino)-7-azabicyclo[2.2.1]heptan-7-yl)methanone] | – | 6.52 | – | 8.05 | 8.00 | – |
| O=C(c1ccccc1-c1ncccn1)N1[C@@H]2CC[C@H]1[C@H](Nc1cnc(C(F)(F)F)cn1)C2 [Example 400, (2-(pyrimidin-2-yl)phenyl)((1S,2R,4R)-2-((5-(trifluoromethyl)pyrazin-2-yl)amino)-7-azabicyclo[2.2.1]heptan-7-yl)methanone] | – | 6.24 | – | 7.72 | 7.57 | – |
| Cc1cnc(-n2nccn2)c(C(=O)N2[C@@H]3CC[C@H]2[C@H](Nc2cnc(C(F)(F)F)cn2)C3)c1 [Example 401, (5-methyl-2-(2H-1,2,3-triazol-2-yl)pyridin-3-yl)((1S,2R,4R)-2-((5-(trifluoromethyl)pyrazin-2-yl)amino)-7-azabicyclo[2.2.1]heptan-7-yl)methanone] | 6.40 | < 5.00 | 6.71 | – | – | – |
| Cc1ccc(-c2ncccn2)c(C(=O)N2[C@@H]3CC[C@H]2[C@H](Nc2cnc(C(F)(F)F)cn2)C3)n1 [Example 403, (6-methyl-3-(pyrimidin-2-yl)pyridin-2-yl)((1S,2R,4R)-2-((5-(trifluoromethyl)pyrazin-2-yl)amino)-7-azabicyclo[2.2.1]heptan-7-yl)methanone] | – | 6.37 | – | 7.17 | 7.06 | – |
| Cc1cnc(C(=O)N2[C@@H]3CC[C@H]2[C@H](Nc2cnc(C(F)(F)F)cn2)C3)c(-c2ncccn2)c1 [Example 405, (5-methyl-3-(pyrimidin-2-yl)pyridin-2-yl)((1S,2R,4R)-2-((5-(trifluoromethyl)pyrazin-2-yl)amino)-7-azabicyclo[2.2.1]heptan-7-yl)methanone] | – | – | – | 7.23 | 7.28 | pKi (human orexin 2 receptor; read-out: hOX2 Ki): < 5.00 |
| O=C(c1ncccc1-c1ncccn1)N1[C@@H]2CC[C@H]1[C@H](Nc1cnc(C(F)(F)F)cn1)C2 [Example 406, (3-(pyrimidin-2-yl)pyridin-2-yl)((1S,2R,4R)-2-((5-(trifluoromethyl)pyrazin-2-yl)amino)-7-azabicyclo[2.2.1]heptan-7-yl)methanone] | 7.36 | 6.01 | 7.23 | – | – | – |
